Data on two compounds can be found in ChEMBL document CHEMBL1151487, “DHPMP: a novel group I specific metabotropic glutamate receptor agonist” (Bioorg Med Chem Lett, 1996).

Assay [1] can be described thus: Compound was evaluated for its activity at group I mGluRs for the generation of [3H]inositol phosphate using [3H]inositol pre-labelled guinea-pig cerebral cortex slices. The class given is tissue-based, Cavia porcellus.
The species entered for assay [2] is Cavia porcellus. The experiment in a line: Compound was evaluated for inhibition of forskolin-stimulated cAMP generation at Group II and Group III mGluRs. It counts as functional.

Molecules are shown by their SMILES.

With `N[C@H](C(=O)O)c1cc(O)cc(O)c1`, in assay [1], the “Log EC50” value is -4.9.
Regarding `NC(c1cc(O)cc(O)c1)[PH](=O)O` (stereo not drawn), the “Log EC50” value in assay [1] is -4.56. In assay [2], the EC50 was 2.09 µM.

As a reminder, the EC50 is the concentration that produces a half-maximal response. The low end stands for greater potency, the high end for weaker potency.
